Measurements reported in patent US20080166807A1, “Autologous progenitor stem cells of gastrointestinal origin” (priority 2005, published 2008).
Several values for one entry are separate records, joined by “and”; a condition that tells them apart may be missing. Equal entries are not always repeated.

Tested on: GIP-C cells
Test: Attachment factors study with subcultured GIP-C cells (cell counts in supernatant and of attached cells)
Format: cell-based
Details: for Cell counts in Supernatant, 2-5 μm / Cell counts in Supernatant, 5-8 μm / Cell counts of Attached cells, 2-5 μm / Cell counts of Attached cells, 5-8 μm: wells coated with attachment factor, RPMI 1640 media with supplements, two wells each; for Attaching of cells from 2-5 μm (comparison of attachment factors): cells 2-5 μm
Method: Two of the six well plates were coated with the following attachment factors: Collagen type IV, Fibronectin, Superfibronectin, ECM gel and Laminin. Collagen type IV (2 mg/ml) was made by dissolving 0.75 mg of collagen in 375 μl of sterilized 0.25% acetic acid. Collagen type IV (187.5 μl) was used to coat two wells and Incubated overnight at 2-8° C. Fibronectin (250 μl of 10 μg/ml) was used to coat each well and air-dried at room temperature for 45 minutes. Superfibronectin (250 μl of 5 μg/ml) was used to coat each well and incubated at 37° C. for two hours. The wells were then washed twice with 100 μl of PBS, and left to air dry in a laminar flow hood. ECM gel was thawed overnight before use; 250 μl of ECM gel was mixed with 250 μl of cold DMEM medium before using 250 μl of the mixture to coat precooled wells. The ECM gel was then left for five minutes at 20° C. for the gel to polymerize. An aliquot of 200 μg/200 μl of laminin was thawed at 4° C. for 2-4 hrs before making a dilution using 36 μl of stock solution and diluting it with 464 μl of sterile PBS. Laminin (250 μl, 18 μg/well) was used to coat each well. The plates with laminin were then air-dried for 45 minutes. All of the plates containing the attachment factors were sterilized overnight by exposure to UV light in a sterile tissue culture hood.
RPMI 1640 media (250 ml) was obtained from Invitrogen (11875-085), to which the following supplements were added: 100 ng/ml of cholera-toxin (Sigma, C8052), 500 ng/ml of hydrocortisone (Sigma, H0888), 5% of heat inactivated horse serum (Gibco, 16050-130) and 25 ml of Mesenchymal supplement (Stemcell technologies, 05402). After the media was filter sterilized and aliquots of 26 ml were made, they were stored at 4° C.
RPMI 1640 media with all the supplements was warmed at 37° C. Two ml of the media was added to each well containing the attachment factors along with 3 control wells which contained no attachment factors. Cells previously subcultured in mesencult medium were pelleted and divided into 100,000 cells per well and incubated at 37° C. The cells were observed under a phase-contrast microscope. Once, every two days the top layer containing the unattached GIP-C cells was removed, washed and resuspended in freezing media. Two ml of RPMI 1640 media with the supplements was added to the wells and incubated at 37° C.
The gastrointestinal progenitor cells in culture were found mostly in suspension in the culture media. In order to test the adherence of these cells a study was conducted where they were plated on tissue culture wells coated with each of the five different epithelial cell attachment factors: collagen type IV, laminin, superfibronectin, fibronectin, and ECM gel. There were three control wells with no attachment factors in them.

Substance	Cell counts in Supernatant, 2-5 μm	Cell counts in Supernatant, 5-8 μm	Cell counts of Attached cells, 2-5 μm	Cell counts of Attached cells, 5-8 μm	Attaching of cells from 2-5 μm (comparison of attachment factors)
Laminin	4.09E+07 Cells/ml and 3.04E+07 Cells/ml	90048 Cells/ml and 84822 Cells/ml	974448 Cells/ml and 643602 Cells/ml	40602 Cells/ml and 43416 Cells/ml	
Superfibronectin	3.96E+07 Cells/ml and 5.06E+07 Cells/ml	67536 Cells/ml and 54672 Cells/ml	1.62E+06 Cells/ml and 1.35E+06 Cells/ml		seemed to be better at attaching cells
Collagen type IV	1.22E+07 Cells/ml and 1.60E+07 Cells/ml		2.25E+06 Cells/ml and 1.19E+06 Cells/ml	57486 Cells/ml	seemed to be better at attaching cells
Fibronectin		68340 Cells/ml and 63918 Cells/ml	68340 Cells/ml		
